Values belong to the compound of their own block, whether it stands above or below them.
Experiments:
Format in all cases: functional
[1] = test system: NCI-H23; assay: Growth inhibition of human NCI-H23 cells after 48 hrs by sulforhodamine B colorimetric assay; conditions: NCI-H23, 48 h
[2] = test system: NCI-H522; assay: Growth inhibition of human NCI-H522 cells after 48 hrs by sulforhodamine B colorimetric assay; conditions: NCI-H522, 48 h
[3] = test system: A549; assay: Growth inhibition of human A549 cells after 48 hrs by sulforhodamine B colorimetric assay; conditions: A549, 48 h, read-out: pGI50 (converted)
[4] = Growth inhibition of human DMS273 cells after 48 hrs by sulforhodamine B colorimetric assay; conditions: DMS-273, 48 h
[5] = test system: SK-OV-3; assay: Growth inhibition of human SKOV3 cells after 48 hrs by sulforhodamine B colorimetric assay; conditions: SK-OV-3, 48 h, read-out: pGI50 (converted)
[6] = Growth inhibition of human RXF631L cells after 48 hrs by sulforhodamine B colorimetric assay; conditions: RXF 631, 48 h, read-out: pGI50 (converted)
[7] = Growth inhibition of human HBC4 cells after 48 hrs by sulforhodamine B colorimetric assay; conditions: HBC4, 48 h, read-out: pGI50 (converted)
[8] = test system: MCF7; assay: Growth inhibition of human MCF7 cells after 48 hrs by sulforhodamine B colorimetric assay; conditions: MCF7, 48 h
[9] = test system: U-251; assay: Growth inhibition of human U251 cells after 48 hrs by sulforhodamine B colorimetric assay; conditions: U-251, 48 h, read-out: pGI50 (converted)
[10] = test system: SF-268; assay: Growth inhibition of human SF268 cells after 48 hrs by sulforhodamine B colorimetric assay; conditions: SF-268, 48 h, read-out: pGI50 (converted)
[11] = Growth inhibition of human SF295 cells after 48 hrs by sulforhodamine B colorimetric assay; conditions: SF-295, 48 h
[12] = Growth inhibition of human SF539 cells after 48 hrs by sulforhodamine B colorimetric assay; conditions: SF-539, 48 h, read-out: pGI50 (converted)
[13] = Growth inhibition of human SNB78 cells after 48 hrs by sulforhodamine B colorimetric assay; conditions: SNB-78, 48 h, read-out: pGI50 (converted)
[14] = test system: NCI-H226; assay: Growth inhibition of human NCI-H226 cells after 48 hrs by sulforhodamine B colorimetric assay; conditions: NCI-H226, 48 h, read-out: pGI50 (converted)
[15] = test system: NCI-H460; assay: Growth inhibition of human NCI-H460 cells after 48 hrs by sulforhodamine B colorimetric assay; conditions: NCI-H460, 48 h, read-out: pGI50 (converted)
[16] = Growth inhibition of human DMS114 cells after 48 hrs by sulforhodamine B colorimetric assay; conditions: DMS-114, 48 h
[17] = Growth inhibition of human LOXIMVI cells after 48 hrs by sulforhodamine B colorimetric assay; conditions: LOX IMVI
[18] = Growth inhibition of human OVCAR3 cells after 48 hrs by sulforhodamine B colorimetric assay; conditions: OVCAR-3, 48 h, read-out: pGI50 (converted)
[19] = Growth inhibition of human OVCAR4 cells after 48 hrs by sulforhodamine B colorimetric assay; conditions: OVCAR-4, 48 h, read-out: pGI50 (converted)
[20] = Growth inhibition of human OVCAR5 cells after 48 hrs by sulforhodamine B colorimetric assay; conditions: OVCAR-5, 48 h, read-out: pGI50 (converted)
[21] = Growth inhibition of human OVCAR8 cells after 48 hrs by sulforhodamine B colorimetric assay; conditions: OVCAR-8, 48 h, read-out: pGI50 (converted)
[22] = test system: ACHN; assay: Growth inhibition of human ACHN cells after 48 hrs by sulforhodamine B colorimetric assay; conditions: read-out: pGI50 (converted)
[23] = test system: St-4; assay: Growth inhibition of human St-4 cells after 48 hrs by sulforhodamine B colorimetric assay; conditions: St-4, 48 h, read-out: pGI50 (converted)
[24] = Growth inhibition of human MKN1 cells after 48 hrs by sulforhodamine B colorimetric assay; conditions: MKN-1, 48 h, read-out: pGI50 (converted)
[25] = Growth inhibition of human MKN7 cells after 48 hrs by sulforhodamine B colorimetric assay; conditions: MKN-7, 48 h
[26] = Growth inhibition of human MKN28 cells after 48 hrs by sulforhodamine B colorimetric assay; conditions: MKN-28, 48 h
[27] = Growth inhibition of human MKN45 cells after 48 hrs by sulforhodamine B colorimetric assay; conditions: MKN-45, 48 h, read-out: pGI50 (converted)
[28] = Growth inhibition of human MKN74 cells after 48 hrs by sulforhodamine B colorimetric assay; conditions: MKN-74, 48 h
[29] = test system: DU-145; assay: Growth inhibition of human DU145 cells after 48 hrs by sulforhodamine B colorimetric assay; conditions: DU-145, 48 h, read-out: pGI50 (converted)
[30] = Growth inhibition of human PC3 cells after 48 hrs by sulforhodamine B colorimetric assay; conditions: PC-3, 48 h, read-out: pGI50 (converted)
[31] = Growth inhibition of human BSY1 cells after 48 hrs by sulforhodamine B colorimetric assay; conditions: BSY-1, 48 h
[32] = Growth inhibition of human HBC5 cells after 48 hrs by sulforhodamine B colorimetric assay; conditions: HBC5, 48 h
[33] = test system: MDA-MB-231; assay: Growth inhibition of human MDA-MB-231 cells after 48 hrs by sulforhodamine B colorimetric assay; conditions: MDA-MB-231, 48 h, read-out: pGI50 (converted)
[34] = test system: SNB-75; assay: Growth inhibition of human SNB75 cells after 48 hrs by sulforhodamine B colorimetric assay; conditions: SNB-75, 48 h, read-out: pGI50 (converted)
[35] = Growth inhibition of human HCC2998 cells after 48 hrs by sulforhodamine B colorimetric assay; conditions: HCC 2998, 48 h, read-out: pGI50 (converted)
[36] = test system: KM12; assay: Growth inhibition of human KM12 cells after 48 hrs by sulforhodamine B colorimetric assay; conditions: KM12, 48 h, read-out: pGI50 (converted)
[37] = test system: HT-29; assay: Growth inhibition of human HT-29 cells after 48 hrs by sulforhodamine B colorimetric assay; conditions: HT-29, 48 h, read-out: pGI50 (converted)
[38] = Growth inhibition of human HCT15 cells after 48 hrs by sulforhodamine B colorimetric assay; conditions: HCT-15, 48 h, read-out: pGI50 (converted)
[39] = Growth inhibition of human HCT116 cells after 48 hrs by sulforhodamine B colorimetric assay; conditions: HCT-116, 48 h

GI50 [1]: 0.2 µM | GI50 [2]: 1 µM | GI50 [3]: > 100 µM | GI50 [5]: > 100 µM | GI50 [8]: 2 µM | GI50 [9]: > 100 µM
Compound: CCCCCCCCCCCC[C@@H](O)[C@H]1CC[C@H]([C@H](O)CCCCCCCCCCNC(=O)c2ccsc2)O1
GI50 [4]: 2 µM | GI50 [6]: > 100 µM | GI50 [7]: > 100 µM | GI50 [10]: > 100 µM | GI50 [11]: 1 µM | GI50 [12]: > 100 µM | GI50 [13]: > 100 µM

GI50 [1]: 36.3 µM | GI50 [14]: > 100 µM | GI50 [2]: 25.7 µM | GI50 [15]: > 100 µM | GI50 [3]: > 100 µM | GI50 [5]: > 100 µM | GI50 [22]: > 100 µM | GI50 [29]: > 100 µM | GI50 [8]: 2.88 µM | GI50 [33]: > 100 µM | GI50 [9]: > 100 µM | GI50 [37]: > 100 µM
Compound: CN(C)c1cccc2c(S(=O)(=O)NCCCCCCCCC[C@@H](O)[C@H]3CC[C@H]([C@H](O)CCCCCCCCCCNC(=O)c4ccsc4)O3)cccc12
GI50 [4]: > 100 µM | GI50 [16]: 0.0302 µM | GI50 [17]: 0.676 µM | GI50 [18]: > 100 µM | GI50 [19]: > 100 µM | GI50 [20]: > 100 µM | GI50 [21]: > 100 µM | GI50 [6]: > 100 µM | GI50 [23]: > 100 µM | GI50 [24]: > 100 µM | GI50 [25]: 0.0363 µM | GI50 [26]: 0.0363 µM | GI50 [27]: > 100 µM | GI50 [28]: 33.1 µM | GI50 [30]: > 100 µM | GI50 [7]: > 100 µM | GI50 [31]: 1.2 µM | GI50 [32]: 0.363 µM | GI50 [10]: > 100 µM | GI50 [11]: 12.9 µM | GI50 [12]: > 100 µM | GI50 [34]: > 100 µM | GI50 [13]: > 100 µM | GI50 [35]: > 100 µM | GI50 [36]: > 100 µM | GI50 [38]: > 100 µM | GI50 [39]: 0.302 µM

— ChEMBL document CHEMBL3397003, “Synthesis of dansyl-labeled probe of thiophene analogue of annonaceous acetogenins for visualization of cell distribution and growth inhibitory activity toward human cancer cell lines” (2015)
